The values that follow come from patent US5221692A, “Ether linked and relatively nonpungent analogues of N-nonanoyl vanillylamide” (National Science Council, priority 1991, dated 1993).

Like-named read-outs stand apart in the source and are kept apart here.

Broadly, the ED50 is the dose that gives a 50% effect, or the effect in half of the subjects.

For data set [1] the following is noted: oral; cited from earlier work.
Data set [2] deals with acetic acid-induced writhing in mice. Put plainly: Acetic acid-induced writhing (antinociceptive test). It counts as in vivo, male mice (ddk strain). Conditions: for ED50: Mus musculus, ip, 0.5 h, read-out: ED50 (95% C.L.); for Potency ratio: indomethacin 1.00. The method, then:
Evaluation of antinociceptive effects Following the method described by Koster et al., Fed. proc. 18, 412 (1959), antinociceptive tests were carried out in male mice after intraperitoneal administration of NVA and its analogues. Briefly, four groups of eight male mice (ddk strain) weighing 18-22 g were brought to the laboratory on the day prior to study, and housed overnight with free access to food and water. Solutions of NVA and its analogues, as well as indomethacin were made up to 10% ethanol, 10% […] 80% saline, and then diluted with saline to the required concentrations. The test solution was administered by intraperitoneal injection with single dose of 0.2 mL (vehicle administered as control). 20 min after injection, 0.2 mL of 0.7% acetic acid was injected intraperitoneally to induce writhing. Following injection, the mice were placed […] acid injection, a writhe being defined as a sequence of arching of the back, followed by pelvic rotation and hind limb extension.
^a) Writhes were counted for 30 min after injection of acetic acid
^b) ED50 and 95% confidence limits were calculated by the
Litchfield and Wilcoxon method.

For data set [3], the system named is right eye of male Wistar rats. Briefly: Wiping test (potency of pungency). The data set is classed as in vivo. The protocol: The wiping test was performed as described by Szolcsanyl and Jansco-Gabor, Arzneim.-Forsch./Drug Res. 25, 1877 (1975). Briefly, solutions of CAP and its analogues were prepared as described above in successive tenfold dilutions. Each dilution was dropped into the right eye (vehicle being administered to the left eye as negative control) of male Wistar rats weighing 180-250 g, and the total number of protective movements (scratching, wiping of the eye with the foreleg) was counted for 30 min. Each concentration was applied to a total of 6 rats, and a dose-response curve were obtained form the mean value of each group. […] On the basis of the MPP values thus obtained, RPP (relative pain-producing potency) values were determined with respect to the pain-producing potency of CAP, which was taken as 1000.
^a) Methods are described by Szolcsanyi & JanscoGabor.

The mark [4] stands for this setting: relative to capsaicin, taken as 1000.
[5] abbreviates: intraperitoneal, mice, acetic acid 20 min after injection, writhes counted for 30 min, 95% confidence limits, Litchfield and Wilcoxon.

Consider `CCCCCCCCC=CCCCCCCCC(=O)NCc1ccc(O)c(OC)c1` [olvanil, N-vanillyl-9-octadecenamide], for which the ED50 in data set [1] was 170 mg/kg.
For `CCCCCCCCC(=O)NCc1ccc(O)c(OC)c1` [NVA, N-nonanoyl vanillylamide], the ED50 in data set [2] was 0.08 mg/kg. The Potency ratio in data set [2] (intraperitoneal, mice) came out at 13.75. For the same compound, in data set [3] (setting [4]), the “RPP (Relative pain-producing potency)” value is reported as 409.
Take `CCCCCCCCC(=O)NCc1ccc(OC(=O)CCC(=O)O)c(OC)c1` [Compound 3, N-(4-o-succinicacid-3-methoxybenzyl)-nonamide]: the ED50 in data set [2] (setting [5]) was 0.06 mg/kg. The Potency ratio in data set [2] (intraperitoneal, mice) was found to be 18.33. Moreover, in data set [3] (rat, in vivo), the “pungency (in words)” value is “nearly equivalent to that of NVA and CAP”. Besides, in data set [3] (rat, in vivo, 30 min), the “MPP (Moderate pain-producing potency)” value worked out at 0.27 mg/mL and the “RPP (Relative pain-producing potency)” value came to 333.
For `COc1ccc2c(c1)c(CC(=O)O)c(C)n2C(=O)c1ccc(Cl)cc1` [Indomethacin, reference compound], in data set [2] (setting [5]), the ED50 came to 1.1 mg/kg.
`CCCCCCCCC(=O)NCc1ccc(OCC(=O)O)c(OC)c1` [Compound 5]: the median effective dose (ED50) in data set [2] (setting [5]) is 0.04 mg/kg. Besides, in data set [2] (intraperitoneal, mice), the “antinociceptive effect (in words)” value was “the most potent in its antinociceptive effect” and the Potency ratio is on record as 27.50.
For `CCCCCCCCC(=O)NCc1ccc(OCC(O)CO)c(OC)c1` (stereo not shown) [Compound 4, N-(4-o-glycerol-3-methoxybenzyl)-nonamide], the ED50 in data set [2] (setting [5]) was 0.09 mg/kg. In data set [2] (intraperitoneal, mice), the Potency ratio is 12.22.
Consider `COc1cc(CNC(=O)CCCC/C=C/C(C)C)ccc1O` [Capsaicin, trans-8-methyl-N-vanillyl-6-nonenamide], for which the ED50 in data set [2] (setting [5]) turned out to be 0.07 mg/kg. Further, the Potency ratio in data set [2] (intraperitoneal, mice) is on record as 15.71. In data set [3] (concentration inducing 32 scratchings, eye instillation, rats, 30 min), the “MPP (Moderate pain-producing potency)” value amounted to 0.09 mg/mL. Further, the “median response (number of scratchings)” value in data set [3] (counted for 30 min, eye instillation, rats) is 32 scratchings. In addition, the “RPP (Relative pain-producing potency)” value in data set [3] (setting [4]) is 1000.
For the compound `CCCCCCCCC(=O)NCc1ccc(OCCO)c(OC)c1` [Compound 6, N-(4-o-glycol-3-methoxybenzyl)-nonamide], the ED50 in data set [2] (setting [5]) stood at 0.14 mg/kg. In data set [2] (intraperitoneal, mice), the Potency ratio is recorded as 7.86.
